Legend:
[1] = biological target: T1, KCNN2 (Mus musculus, UniProt P58390); experiment: Electrophysiology: tamapin-sensitive medium afterhyperpolarization (mAHP) in primary motor cortex slices; type: cell-based, mice; settings: Tamapin 100 nM
T1 construct: Coronal slices containing primary motor cortex (300 μm) were prepared; from tissue; host or cells: acute coronal slices of primary motor cortex from P30 mice, layer II/III pyramidal neurons
Method: Electrophysiology: Coronal slices containing primary motor cortex (300 μm) were prepared as described above by using a vibrating blade microtome (Leica VT 1000S) from DNA (HSE-FLP0, CAG GFP and RFP FRT, 2 μg/μl each) electroporated mice (P30) brain. The recording chamber was perfused with oxygenated (95% O2/5% CO2) aCSF at 2 ml/min at room temperature. DNA electroporated primary motor cortex neurons were visualized through an infrared charge-coupled device (CCD) camera (C2741-79; Hamamatsu Photonics, Hamamatsu, Japan). The electrodes were filled with internal solution containing (in mM) 130 […], 10 KCl, 10 HEPES, 10 EGTA, 2 MgCl2, 2 Na2-ATP and 0.3 Na-GTP (pH 7.3; electrode resistances: 4-6 MΩ). Cells were recorded in the whole-cell voltage or current clamp mode with a holding potential of −60 mV using a patch-clamp amplifier (700B; Molecular Devices, Sunnyvale, Calif. USA). Series resistance was compensated. The output of the amplifier was digitized using an A/D converter board (Digidata 1322; Molecular Devices) with a sampling rate of 10 kHz, and recorded on a hard disk by data acquisition software (pCLAMP10; Molecular Devices). For the mAHP, cells were held at −60 mV under current clamp mode and action potentials were evoked through injecting positive current. LTP was induced electrically under voltage clamp mode by applying single 1-sec train (100 Hz, 100 μA, Isoflexm, A.M.P.I; CPI, Carl Pisaturo Standord University).
Example 4 KCNN2 Antagonist, Tamapin (100 nM), Affects the Medium Duration Afterhyperpolarization (mAHP) in Reporter-Positive Pyramidal Neurons in M1
(FIGS. 4A-4C, panels a4-c4) Left panels: Cumulative distributions of the amplitude of action potential and the mean amplitude of action potentials (insets)recorded from control (black)- and Tamapin (red)-stimulated neurons. Right panels: Firing frequencies, showing significant increase in RFP^+ neurons. *P=0.016 by Student's t-test.

[2] = test system: mice exposed to EtOH prenatally; experiment: Accelerating Rotarod motor learning before and after Tamapin injection (i.p.) in mice exposed to EtOH prenatally; type: in vivo, CD-1 mice
Method: Mice were tested using the Rotarod test described above on postnatal days 30, 31, 32 and 33 days as shown by the timeline in FIG. 5A. Thus, the mice were tested for the motor learning before and after the Tamapin injection (i.p.).

[3] = test system: SK2 channels; settings: cited from earlier work
[4] = test system: CD-1 mice
Method: Pregnant mice CD-1 mice purchased from Charles River Company and bred under a light-dark cycle at a constant temperature were injected i.p. with 2 g/kg with either PBS (control) or ethanol (EtOH) thus exposing fetal mice in utero to PBS or EtOH. Thirty days after mice were born (day P30) motor skills of the control and EtOH-treated groups were compared using Rotarod test. The treatment timeline for the mice is shown in FIG. 1A and the Rotarod test is depicted by FIG. 1B.
For assessment of motor learning behavior, mice (P30) were carried out using an accelerating Rotarod apparatus (TSE Instruments) over 3 repeated trials (5 minutes per trial)/day for 2 consecutive days before testing phase. The Rotarod testing involves placing the mice on a rotating bar and determining the length of time that they can retain their balance as the rate of rotation is increased (max 80 rpm, for 5 min). On the day of testing, mice were kept in their home cages and acclimated to the testing room for at least 15 min. 2 min acclimation session at 2 rpm one time prior to the test phase was performed. Testing phase consisted of 3 trials per day separated by 30 min each for 2 consecutive days (total 6 trials). Each trail was terminated when mouse fell off or reached maximum 5 min (maximum speed). During the trials, mice that moved 180° (same direction of rotation) were gently turned around, face forward, to opposite direction of rotation. The latency to fall from a rotating rod was scored automatically with infrared sensors in a Rotamex 5 rotarod (Columbus Inst.; Columbus, Ohio).

[5] = test system: heat shock factor 1 (Hsf1); settings: alcohol regimen i.p. at E16.5 and E17.5
Method: In utero electroporation was carried out as described [1-3]. Briefly, the plasmid for Flippase-FRT based reporter of heat shock factor 1 (Hsf1) activation was co-electroporated with EGFP-f plasmid (Addgene, 2 μg/μl each).
By using this method, the cells that had robust prenatal Hsf1 activation were labeled by RFP reporter.
The RFP reporter expression was induced upon Hsf1 activation in a subset of GFP-positive neurons. […] Pups were screened using an epifluorescence stereomicroscope at postnatal days (P1) that had GFP-positive cells in their primary motor cortex. Further experiments were performed on these mice i.e., single cell sampling, electrophysiology study, immunohistochemistry (IHC) and neurons morphology at P30.

T1 sequence (P58390 266-839): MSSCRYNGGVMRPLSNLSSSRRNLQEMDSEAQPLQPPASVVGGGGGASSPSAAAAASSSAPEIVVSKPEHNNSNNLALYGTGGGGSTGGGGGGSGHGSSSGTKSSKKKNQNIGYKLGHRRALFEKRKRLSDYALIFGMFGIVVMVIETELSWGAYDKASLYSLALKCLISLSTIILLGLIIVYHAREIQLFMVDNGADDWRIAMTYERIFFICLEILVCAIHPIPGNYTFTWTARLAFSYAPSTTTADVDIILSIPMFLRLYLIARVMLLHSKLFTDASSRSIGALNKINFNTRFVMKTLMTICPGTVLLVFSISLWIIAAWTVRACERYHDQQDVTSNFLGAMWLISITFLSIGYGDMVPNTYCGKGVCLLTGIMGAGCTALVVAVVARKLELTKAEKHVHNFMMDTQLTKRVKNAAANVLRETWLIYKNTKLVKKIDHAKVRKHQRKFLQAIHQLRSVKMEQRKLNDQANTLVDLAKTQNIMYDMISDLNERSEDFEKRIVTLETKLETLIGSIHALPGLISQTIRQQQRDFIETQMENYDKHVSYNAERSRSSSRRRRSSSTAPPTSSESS

Row | Compound | firing frequency ([1]; EtOH-exposed RFP+ neurons, P=0.016) | medium afterhyperpolarization (mAHP) ([1]; EtOH-exposed RFP+ pyramidal neurons, M1, P30 slices, P=0.009) | effects on mAHP and firing in RFP- neurons ([1]; RFP- neurons in PBS- or EtOH-exposed brains) | initial motor coordination (FIG. 5C) ([2]; EtOH-exposed mice) | motor learning (latency to fall, FIG. 5B) ([2]; EtOH-exposed mice, trial 7-12, Tamapin i.p. vs vehicle, P=0.0001) | latency to fall at the first trial followed by injection (trial 7), vehicle vs Tamapin ([2]; PBS-exposed and EtOH-exposed groups, P=0.302 and 0.960) | initial motor coordination (FIG. 5F) ([2]; PBS-exposed mice) | effects on motor learning (FIG. 5G) ([2]; PBS-exposed mice, trial 7-12, P=0.596) | motor learning / learning rate (FIG. 5D) ([2]; Tamapin-injected EtOH-exposed mice, trial 7-12, P=0.015) | effects of fetal exposure to EtOH ([2]; summary of Example 5) | rank order of affinity for SK channels ([3]; functional property of native tamapin) | SK channel selectivity ([3]; known property) | learning and motor skills ([4]; exposure of fetal mice in utero vs control, summary of Example 1) | initial motor coordination (terminal speed at trial 1, FIG. 1D) ([4]; in utero EtOH vs PBS, P30, P=0.579) | learning rates (learning index, Rotarod, FIG. 1C) ([4]; in utero exposure, 2 g/kg i.p. to pregnant mice, P30, males and females, vs PBS) | mean Rotarod terminal speed of control mice relative to EtOH-treated mice (FIG. 1F) ([4]; trial 1 and trial 6) | effects in brain structure [5]
1 | AFCNLRRCELSCRSLGLLGKCIGEECKCVPY [Tamapin] | increased the firing frequency | reduced the mAHP | no significant effects | not affected | improved the motor learning | similar | not affected | No effects | rescued | significantly reversed | SK2 channel>SK3>SK1>SK4 | selective blocker of SK2 channels |  |  |  |  | 
2 | CCO [EtOH, ethanol] |  |  |  |  |  |  |  |  |  |  |  |  | negatively affects | not affected | decreased | significantly higher | did not induce any obvious effects

— patent publication US10555989B2, “Treatment of learning disabilities and other neurological disorders with SK channel inhibitor(s)” (priority 2015, dated 2020)
